# Measured values taken from the CATMoS acute toxicity set (Mansouri et al. 2021).
# Values joined by “and” are separate entries in the source; they are usually repeats but may differ in a detail not shown here. Identical values can stand only once.
# Experiment: rat acute oral toxicity
# Conditions: in vivo
row,Compound,LD50
1,CC(C)(C)C(O)(CCc1ccc(Cl)cc1)Cn1cncn1 (stereo not drawn),1700 mg/kg
2,Cc1cccc(N)c1,450 mg/kg
3,c1ccncc1,891 mg/kg
4,CCN,400 mg/kg
5,CC(C)OC(=O)Nc1ccccc1,1000 mg/kg
6,C=CC(C#N)OC(C)=O (stereo not drawn),31.6 mg/kg
7,Nc1ccc([N+](=O)[O-])cc1,750 mg/kg
8,ClC(Cl)=C(Cl)C(Cl)=C(Cl)Cl,82 mg/kg
9,CCCCOC(=O)COc1ccc(Cl)cc1Cl,600 mg/kg
10,Clc1cc(-c2cc(Cl)c(Cl)c(Cl)c2)cc(Cl)c1Cl,4250 mg/kg
11,C1=CCCC=CCCC=CCC1,1780 mg/kg
12,Cc1cccnc1,400 mg/kg
13,CC(=O)OCCc1ccccc1,3670 mg/kg
14,CC1(C)OC[C@@H]2O[C@@]3(C(=O)O)OC(C)(C)O[C@H]3[C@@H]2O1,18000 mg/kg
15,C#CCO,20 mg/kg
16,O=[N+]([O-])c1ccc(Cl)c(Cl)c1,625 mg/kg
17,Oc1ccc(Cl)cc1Cl,47 mg/kg
18,N#CC(Cl)Cl,330 mg/kg
19,O=S(=O)(C(Cl)(Cl)Cl)C(Cl)(Cl)Cl,535 mg/kg
20,CCCC1COC(Cn2cncn2)(c2ccc(Cl)cc2Cl)O1 (stereo not drawn),1500 mg/kg
21,COC(=O)/C=C\C(=O)OC,1410 mg/kg

row,Compound,LD50
1,CC(C)(C)CC(C)(C)c1ccc(OCCO)cc1,1800 mg/kg
2,COC(=O)Nc1ccc(Cl)c(Cl)c1,522 mg/kg
3,O=[N+]([O-])c1ccc(Cl)cc1Cl,379 mg/kg
4,c1ccc(OP(Oc2ccccc2)Oc2ccccc2)cc1,444 mg/kg
5,CC(C)(C)OOC(=O)c1ccccc1,1010 mg/kg
6,COC(=O)CS,84 mg/kg
7,N#Cc1ccccc1,700 mg/kg
8,CCNP(=S)(OC)O/C(C)=C/C(=O)OC(C)C (stereo not drawn),59.5 mg/kg
9,COc1ccccc1O,520 mg/kg
10,C=CCN=C=S,112 mg/kg
11,CC(C)(C)CCCCCCCCCN,300 mg/kg
12,CC1=CC(=O)NS(=O)(=O)O1,5440 mg/kg
13,C/C=C/C=O,165 mg/kg
14,CCO,7230 mg/kg
15,CC(C)C(C(=O)OC(C#N)c1cccc(Oc2ccccc2)c1)c1ccc(Cl)cc1 (stereo not drawn),135 mg/kg
16,Cc1cc(O)ccc1Cl,1830 mg/kg
17,O=S1(=O)CCCC1,1970 mg/kg
18,COCCO,2260 mg/kg
19,COc1ccc(C(CN)C2(O)CCCCC2)cc1 (stereo not drawn),200 mg/kg
20,CCCCCOC(C)=O,6500 mg/kg
21,CCN(CC)c1nc(Nc2ccc(/C=C/c3ccc(Nc4nc(Nc5cc(S(=O)(=O)O)ccc5S(=O)(=O)O)nc(N(CC)CC)n4)cc3S(=O)(=O)O)c(S(=O)(=O)O)c2)nc(Nc2cc(S(=O)(=O)O)ccc2S(=O)(=O)O)n1,11300 mg/kg

row,Compound,LD50
1,CC1(C)C(C=C(Cl)Cl)C1C(=O)OC(C#N)c1ccc(F)c(Oc2ccccc2)c1 (stereo not drawn),270 mg/kg
2,Cc1nc(N(C)C)nc(OC(=O)N(C)C)c1C,100 mg/kg
3,C=CCBr,120 mg/kg
4,CC1=NNC(=O)N(/N=C/c2cccnc2)C1,5690 mg/kg
5,COC[C@H](C)N(C(=O)CCl)c1c(C)csc1C,371 mg/kg
6,Nc1ccncc1,14 mg/kg
7,COP(=O)(NC(C)=O)SC (stereo not drawn),700 mg/kg
8,Cc1c(N)cccc1N,1000 mg/kg
9,c1cc[n+]2c(c1)-c1cccc[n+]1CC2,220 mg/kg and 120 mg/kg
10,C1COCO1,3000 mg/kg
11,C#CC(C)(C)O,1420 mg/kg
12,N[C@@H](Cc1ccc(N(CCCl)CCCl)cc1)C(=O)O,11.2 mg/kg
13,S=c1sc2nc3ccccc3nc2s1,1800 mg/kg
14,COc1cc(CNC(=O)CCCC/C=C/C(C)C)ccc1O,148 mg/kg
15,CC(C)=O,5800 mg/kg
16,COP(=S)(OC)Oc1cc(Cl)c(Br)cc1Cl,1600 mg/kg
17,CC1=CC(C)(C)CC(=O)C1,1500 mg/kg
18,O=S(=O)(O)CCCS,3720 mg/kg
19,CCCC(=NOCC)C1=C(O)CC(CC(C)SCC)CC1=O (stereo not drawn),2680 mg/kg
20,COC(=O)C(N)Cc1cnc[nH]1 (stereo not drawn),1370 mg/kg
21,O=C(CCCN1CCC(O)(c2ccc(Cl)cc2)CC1)c1ccc(F)cc1,128 mg/kg

row,Compound,LD50
1,N#CCCCCCCC#N,238 mg/kg
2,COP(=S)(OC)Oc1ccc(C#N)cc1,580 mg/kg
3,Cn1cnc2c1c(=O)[nH]c(=O)n2C,950 mg/kg
4,CC(C)CCCCCOC(=O)c1ccccc1C(=O)OCCCCCC(C)C,22000 mg/kg
5,CCC(C)=NO,930 mg/kg
6,CCCCCCCCCCCCOS(=O)(=O)O,977 mg/kg
7,c1ccc2[nH]c(-c3cscn3)nc2c1,2080 mg/kg
8,COP(=S)(OC)Oc1ccc([N+](=O)[O-])cc1,6.01 mg/kg
9,C#C[C@]1(O)CC[C@H]2[C@@H]3CCc4cc(O)ccc4[C@H]3CC[C@@]21C,960 mg/kg
10,"CC1(C)[C@H](C(=O)O[C@@H](C#N)c2cccc(Oc3ccccc3)c2)[C@@H]1C=C(Cl)Cl (single isomer, unassigned)",57 mg/kg
11,O=[N+]([O-])c1ccc(O)c([N+](=O)[O-])c1,30 mg/kg
12,CC(O)CNCC(C)O (stereo not drawn),4760 mg/kg
13,Clc1nc(Cl)nc(Cl)n1,315 mg/kg
14,CC[Si](Cl)(Cl)Cl,800 mg/kg
15,COc1ccc(C(=CC(=O)N2CCOCC2)c2ccc(Cl)cc2)cc1OC,3900 mg/kg
16,OCCCl,58 mg/kg
17,O=C1c2ccccc2C(=O)N1SC(Cl)(Cl)Cl,2640 mg/kg
18,CCCC(=O)OC(C(Cl)(Cl)Cl)P(=O)(OC)OC (stereo not drawn),760 mg/kg
19,CCNc1ccccc1,334 mg/kg
20,C=CC(=O)OCCO,548 mg/kg
